Assay results as given in US11446298B2, “Pyrimidine derivatives” (Idorsia Pharmaceuticals Ltd, priority 2017, dated 2022).

Legend:
Assay type in all cases: cell-based
[1] = target: T1, PTGER2 (EP2) (Homo sapiens, UniProt P43116); assay: hEP2 b-Arrestin Assay (PathHunter HEK 293 PTGER2 b-arrestin cells, PGE2 5 μM); details: antagonistic activity, beta-arrestin assay, HEK 293 PTGER2 cells, PGE2 5 μM (EC80); read-out: hEP2 b-arr IC50
T1 construct: host or cells: HEK 293 (PathHunter, stably transfected)
Summary of the method: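 PathHunter enzyme-fragment complementation in HEK 293 cells: compounds (10 μM-2 nM or 1 μM-0.2 nM) pre-incubated 15 min at 37 °C, then 5 μM PGE2 (EC80) for 120 min at 37 °C. Chemiluminescence read after 1 h detection; IC50 from duplicate dose-response fits, means of repeats.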

[2] = target: T2, EP2 (Homo sapiens, UniProt P43116); assay: hEP2 cAMP Assay (SF295 glioblastoma cells, HTRF cAMP, PGE2 75 nM); details: antagonistic activity, PGE2 75 nM (EC80)
T2 construct: SF295 glioblastoma cells express high endogenous EP2 and no EP4; host or cells: SF295 glioblastoma cells
Summary of the method: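 IC50 values derive from duplicate-point curves of percent cAMP relative to DMSO, read by HTRF (665/620 nm) against a cAMP calibrator. Compounds (30 μM to 0.01 nM ranges) were given 45 min at room temperature before 30 min with 75 nM PGE2, in EP2-only SF295 cells with 2 mM IBMX.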

[3] = target: T3, EP4 (Homo sapiens, UniProt P35408); assay: hEP4 cAMP Assay (BT549 breast cancer cells, HTRF cAMP, PGE2 6 nM); details: antagonistic activity, PGE2 6 nM (EC80)
T3 construct: BT549 breast cancer cells, express high endogenous EP4 levels and very low EP2 levels; host or cells: BT549 breast cancer cells
Summary of the method: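 BT549 cells (endogenous EP4, very low EP2) in HBSS/20 mM HEPES/0.2% BSA/2 mM IBMX, pre-incubated 45 min RT with compound, then stimulated 30 min RT with PGE2 6 nM (EC80). cAMP read by HTRF competitive immunoassay (665/620 nm), converted via calibrator to % of DMSO control; IC50 from duplicate dose-response curves.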

[4] = target: T4, PTGER4 (EP4) (Homo sapiens, UniProt P35408); assay: hEP4 b-Arrestin Assay (PathHunter HEK 293 PTGER4 b-arrestin cells, PGE2 20 nM); details: antagonistic activity, beta-arrestin assay, HEK 293 PTGER4 cells, PGE2 20 nM (EC80); read-out: hEP4 b-arr IC50
T4 construct: host or cells: HEK 293 (PathHunter, stably transfected)
Summary of the method: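 PathHunter HEK 293 EP4 b-arrestin enzyme-complementation cells preincubated 15 min at 37° C with compound (10 μM-2 nM or 1 μM-0.2 nM), then stimulated 120 min with 20 nM PGE2 (EC80). Chemiluminescence read; IC50 from duplicate % activity vs DMSO, one-site fit, averaged over repeats.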

T2 sequence (P43116 whole entry): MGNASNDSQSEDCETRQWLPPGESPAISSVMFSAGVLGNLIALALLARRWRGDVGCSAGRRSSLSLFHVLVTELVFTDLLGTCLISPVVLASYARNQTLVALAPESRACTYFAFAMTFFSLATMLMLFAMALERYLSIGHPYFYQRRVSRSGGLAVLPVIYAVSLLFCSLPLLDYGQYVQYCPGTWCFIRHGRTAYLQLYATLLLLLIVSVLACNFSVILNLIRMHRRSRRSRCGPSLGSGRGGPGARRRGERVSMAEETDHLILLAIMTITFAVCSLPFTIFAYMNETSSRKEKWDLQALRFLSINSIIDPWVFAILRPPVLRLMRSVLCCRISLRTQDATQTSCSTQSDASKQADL
T1 sequence (P43116 whole entry): as above
T3 sequence (P35408 whole entry): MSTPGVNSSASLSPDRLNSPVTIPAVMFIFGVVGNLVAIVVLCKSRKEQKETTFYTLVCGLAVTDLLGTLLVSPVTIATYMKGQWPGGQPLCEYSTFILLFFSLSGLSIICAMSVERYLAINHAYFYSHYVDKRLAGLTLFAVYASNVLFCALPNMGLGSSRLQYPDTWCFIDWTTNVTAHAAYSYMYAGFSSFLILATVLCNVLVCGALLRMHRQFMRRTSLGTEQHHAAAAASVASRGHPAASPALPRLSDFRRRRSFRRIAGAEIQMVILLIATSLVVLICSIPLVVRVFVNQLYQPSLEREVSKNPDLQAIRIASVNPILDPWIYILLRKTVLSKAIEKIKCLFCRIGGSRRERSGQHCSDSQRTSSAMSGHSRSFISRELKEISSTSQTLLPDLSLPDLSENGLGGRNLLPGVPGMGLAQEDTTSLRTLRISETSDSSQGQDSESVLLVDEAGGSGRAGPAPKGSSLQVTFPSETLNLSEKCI
T4 sequence (P35408 whole entry): as above

Work on `CCOc1cc(-c2cc(NCCc3cccc4c(C)cccc34)ncn2)ccc1C(=O)O` [Example 184, 2-Ethoxy-4-{6-[2-(5-methyl-naphthalen-1-yl)-ethylamino]-pyrimidin-4-yl}-benzoic acid] yielded an IC50 [1] of 0.027 µM, an IC50 [2] of 0.048 µM and an IC50 [3] of 0.33 µM. It also gave an IC50 [4] of 0.375 µM.

`CCOc1cc(-c2cc(NCCc3c(OC)ccc4ncccc34)ncn2)sc1-c1noc(=O)[nH]1` [Example 142, 3-(3-Ethoxy-5-{6-[2-(6-methoxy-quinolin-5-yl)-ethylamino]-pyrimidin-4-yl}-thiophen-2-yl)-[1,2,4]oxadiazol-5(4H)-one] showed an IC50 [1] of 0.007 µM, an IC50 [2] of 0.04 µM and an IC50 [3] of 0.027 µM. It also gave an IC50 [4] of 0.01 µM.

In the case of `CCOc1cc(-c2cc(NCCc3c(C)c(C)cc4ccccc34)ncn2)sc1C(=O)O` [Example 12, 5-{6-[2-(2,3-Dimethyl-naphthalen-1-yl)-ethylamino]-pyrimidin-4-yl}-3-ethoxy-thiophene-2-carboxylic acid], the IC50 [1] is reported as 0.027 µM, the IC50 [2] is reported as 0.017 µM and the IC50 [3] is reported as 0.017 µM. The IC50 [4] was 0.052 µM.

Work on `CCOc1cc(-c2cc(NCCc3cccc4cc[nH]c34)ncn2)sc1-c1noc(=O)[nH]1` [Example 143, 3-(3-Ethoxy-5-{6-[2-(1H-indol-7-yl)-ethylamino]-pyrimidin-4-yl}-thiophen-2-yl)-[1,2,4]oxadiazol-5(4H)-one] yielded an IC50 [1] of 0.031 µM, an IC50 [2] of 0.09 µM and an IC50 [3] of 0.105 µM. For the same compound, the IC50 [4] was 0.021 µM.

`CCc1nc(-c2cc(NCCc3c(OC)ccc4ccccc34)ncn2)sc1-c1noc(=O)[nH]1` [Example 190, 3-(4-Ethyl-2-{6-[2-(2-methoxy-naphthalen-1-yl)-ethylamino]-pyrimidin-4-yl}-thiazol-5-yl)-[1,2,4]oxadiazol-5(4H)-one] showed an IC50 [1] of 0.013 µM, an IC50 [2] of 0.008 µM and an IC50 [3] of 1.25 µM. It also gave an IC50 [4] of 0.034 µM.

`CCSc1cc(-c2cc(NCCc3ccc(C)c4ccccc34)ncn2)ccc1C(=O)O` [Example 100, 2-Ethylsulfanyl-4-{6-[2-(4-methyl-naphthalen-1-yl)-ethylamino]-pyrimidin-4-yl}-benzoic acid] was tested, and the IC50 [1] was 0.133 µM, the IC50 [2] was 0.206 µM and the IC50 [3] was 0.076 µM. For the same compound, the IC50 [4] was 0.206 µM.

With `CCOc1cc(-c2cc(NCCc3c(OC)ccc4nc(C)ccc34)ncn2)sc1C(=O)O` [Example 13, 3-Ethoxy-5-{6-[2-(6-methoxy-2-methyl-quinolin-5-yl)-ethylamino]-pyrimidin-4-yl}-thiophene-2-carboxylic acid] the IC50 [1] was 0.025 µM, the IC50 [2] was 0.024 µM and the IC50 [3] was 0.138 µM. It also gave an IC50 [4] of 0.225 µM.

`CCOc1cc(-c2cc(NCCc3c(OC)ccc4ccccc34)ncn2)ccc1-c1noc(=O)[nH]1` [Example 126, 3-(2-Ethoxy-4-{6-[2-(2-methoxy-naphthalen-1-yl)-ethylamino]-pyrimidin-4-yl}-phenyl)-4H-[1,2,4]oxadiazol-5-one] showed an IC50 [1] of 0.005 µM, an IC50 [2] of 0.02 µM and an IC50 [3] of 0.043 µM. For the same compound, the IC50 [4] was 0.034 µM.

In the case of `COc1ccc2c(c1CCNc1cc(-c3cc(C(F)(F)F)c(C(=O)O)s3)ncn1)CCCN2C` [Example 154, 5-{6-[2-(6-Methoxy-1-methyl-1,2,3,4-tetrahydro-quinolin-5-yl)-ethylamino]-pyrimidin-4-yl}-3-trifluoromethyl-thiophene-2-carboxylic Acid], the IC50 [1] is reported as 0.057 µM, the IC50 [2] is reported as 0.144 µM and the IC50 [3] is reported as 0.177 µM. It also gave an IC50 [4] of 0.125 µM.

`Cn1ccc2c(CCNc3cc(-c4ccc(C(=O)O)c(OC5CCC5)c4)ncn3)cccc21` [Example 159, 2-Cyclobutoxy-4-{6-[2-(1-methyl-1H-indol-4-yl)-ethylamino]-pyrimidin-4-yl}-benzoic acid] showed an IC50 [1] of 0.044 µM, an IC50 [2] of 0.11 µM and an IC50 [3] of 1.05 µM. The IC50 [4] was 0.864 µM.

`CCOc1cc(-c2cc(NCCc3cccc4ccccc34)ncn2)ccc1C(=O)O` [Example 6, 2-Ethoxy-4-[6-(2-naphthalen-1-yl-ethylamino)-pyrimidin-4-yl]-benzoic acid] was tested, and the IC50 [1] was 0.085 µM, the IC50 [2] was 0.095 µM and the IC50 [3] was 0.91 µM. For the same compound, the IC50 [4] was 1.69 µM.

`CCOc1cc(-c2cc(NCCc3cccc4ccncc34)ncn2)sc1-c1noc(=O)[nH]1` [Example 139, 3-{3-Ethoxy-5-[6-(2-isoquinolin-8-yl-ethylamino)-pyrimidin-4-yl]-thiophen-2-yl}-[1,2,4]oxadiazol-5(4H)-one] showed an IC50 [1] of 0.186 µM, an IC50 [2] of 0.526 µM and an IC50 [3] of 0.028 µM. The IC50 [4] was 0.048 µM.

Work on `CCOc1ccc2ccccc2c1CCNc1cc(-c2ccc(C(=O)O)c(OC3CCC3)c2)ncn1` [Example 26, 2-Cyclobutoxy-4-{6-[2-(2-ethoxy-naphthalen-1-yl)-ethylamino]-pyrimidin-4-yl}-benzoic acid] yielded an IC50 [1] of 0.01 µM, an IC50 [2] of 0.011 µM and an IC50 [3] of 0.566 µM. For the same compound, the IC50 [4] was 0.392 µM.

`COc1ccc2ccccc2c1CCNc1cc(-c2ccc(C(=O)O)c(OC(F)F)c2)ncn1` [Example 128, 2-Difluoromethoxy-4-{6-[2-(2-methoxy-naphthalen-1-yl)-ethylamino]-pyrimidin-4-yl}-benzoic acid] was tested, and the IC50 [1] was 0.01 µM, the IC50 [2] was 0.003 µM and the IC50 [3] was 0.25 µM. For the same compound, the IC50 [4] was 0.291 µM.

Work on `CCOc1cc(-c2cc(NCCc3cccc4cc(C)oc34)ncn2)sc1C(=O)O` [Example 74, 3-Ethoxy-5-{6-[2-(2-methyl-benzofuran-7-yl)-ethylamino]-pyrimidin-4-yl}-thiophene-2-carboxylic acid] yielded an IC50 [1] of 0.212 µM, an IC50 [2] of 0.078 µM and an IC50 [3] of 0.088 µM. For the same compound, the IC50 [4] was 0.117 µM.

`COc1ccc2ccc(F)c(CCNc3cc(-c4cc(C(F)(F)F)c(C(=O)O)s4)ncn3)c2n1` [Example 151, 5-{6-[2-(7-Fluoro-2-methoxy-quinolin-8-yl)-ethylamino]-pyrimidin-4-yl}-3-trifluoromethyl-thiophene-2-carboxylic acid] showed an IC50 [1] of 0.414 µM, an IC50 [2] of 0.214 µM and an IC50 [3] of 0.228 µM. The IC50 [4] was 0.478 µM.

With `CCOc1cc(-c2cc(NCCc3ccc(C)c4ccccc34)ncn2)ccc1C(=O)O` [Example 16, 2-Ethoxy-4-{6-[2-(4-methyl-naphthalen-1-yl)-ethylamino]-pyrimidin-4-yl}-benzoic acid] the IC50 [1] was 0.143 µM, the IC50 [2] was 0.176 µM and the IC50 [3] was 0.268 µM. The IC50 [4] was 0.29 µM.

Compound `CCOc1cc(-c2cc(NCCc3cc(OC)cc4ccccc34)ncn2)sc1C(=O)O` [Example 42, 3-Ethoxy-5-{6-[2-(3-methoxy-naphthalen-1-yl)-ethylamino]-pyrimidin-4-yl}-thiophene-2-carboxylic acid] has an IC50 [1] of 0.032 µM, an IC50 [2] of 0.031 µM and an IC50 [3] of 0.035 µM. It also gave an IC50 [4] of 0.015 µM.

`CCOc1cc(-c2cc(NCCc3ccc(Br)c4ccccc34)ncn2)ccc1C(=O)O` [Example 182, 4-{6-[2-(4-Bromo-naphthalen-1-yl)-ethylamino]-pyrimidin-4-yl}-2-ethoxy-benzoic acid] showed an IC50 [1] of 0.142 µM, an IC50 [2] of 0.209 µM and an IC50 [3] of 0.182 µM. The IC50 [4] was 0.193 µM.

With `COc1ccc2ccccc2c1CCNc1cc(-c2ccc(-c3c(O)c(=O)c3=O)cc2)ncn1` [Example 116, 3-Hydroxy-4-(4-{6-[2-(2-methoxy-naphthalen-1-yl)-ethylamino]-pyrimidin-4-yl}-phenyl)-cyclobut-3-ene-1,2-dione] the IC50 [1] was 0.025 µM, the IC50 [2] was 0.067 µM and the IC50 [3] was 0.241 µM. For the same compound, the IC50 [4] was 1.14 µM.

`CCOc1cc(-c2cc(NCCc3cccc4ccoc34)ncn2)sc1C(=O)O` [Example 35, 5-[6-(2-Benzofuran-7-yl-ethylamino)-pyrimidin-4-yl]-3-ethoxy-thiophene-2-carboxylic acid] gave an IC50 [1] of 0.115 µM, an IC50 [2] of 0.076 µM and an IC50 [3] of 0.092 µM. For the same compound, the IC50 [4] was 0.113 µM.
